Among the data in publication PMC7997411, “Discovery and Optimization of Selective Inhibitors of Meprin α (Part II)” (Pharmaceuticals, 2021) are IC50 values, retold here.

Common to all, as to format: biochemical
In one assay the target is T1, MMP13 (Homo sapiens, UniProt P45452).
T1 construct: purchased R&D Systems 511-MM
Briefly: MMP assay (fluorogenic substrate ES010). The method, then: (§1) MMP-1, MMP-2, MMP-8, MMP-9, MMP-10, MMP-13, MMP-14, ADAM10, ADAM17 and Mca-KPLGL-Dpa-AR-NH2 fluorogenic peptide substrate were purchased from R&D Systems (cat # 901-MP, 902-MP, 908-MP, 911-MP, 910-MP, 511-MM, 918-MP, 936-AD, 930-ADB, and ES010, respectively). All common chemicals were purchased from Sigma. NFF449 was purchased from Tocris (cat# 1391) and actinonin was from Sigma-Aldrich, St. Louis, MO, USA (cat# 01809).
(§2) All assays followed the same general protocol. 5 µL of 2× enzyme solution (5 nM) in assay buffer (50 mM Tricine, 50 mM NaCl, 10 mM CaCl2, 0.05% Brij-35, pH 7.5) were added to solid-bottom black 384 plates (Nunc, cat# 264705). Next, test compounds and pharmacological controls were added to corresponding wells using a 384-pin tool device (V&P Scientific, San Diego). After 30 min incubation at RT, the reactions were started by addition of 5 µL of 2× solutions of MMP substrate (R&D Systems cat#: ES010, 20 µM). Reactions were incubated at RT for 1 h, after which the fluorescence was measured using the Synergy H4 multimode microplate reader (Biotek Instruments) (λexcitation = 324 nm, λemission = 390 nm). All compounds were tested in 10-point, 1:3 serial dilutions dose-response format starting with highest concentration of 100 µM. IC50 values were determined using non-linear regression analysis using the GraphPad Prism 8.0 suite of programs.

Another assay deals with T2, MMP14 (Homo sapiens, UniProt P50281).
T2 construct: purchased R&D Systems 918-MP
Briefly: MMP assay (fluorogenic substrate ES010). The method, then: as §1, §2

The target of a further assay is T3, MMP2 (Homo sapiens, UniProt P08253).
T3 construct: purchased R&D Systems 902-MP
T3 sequence (P08253 110-660): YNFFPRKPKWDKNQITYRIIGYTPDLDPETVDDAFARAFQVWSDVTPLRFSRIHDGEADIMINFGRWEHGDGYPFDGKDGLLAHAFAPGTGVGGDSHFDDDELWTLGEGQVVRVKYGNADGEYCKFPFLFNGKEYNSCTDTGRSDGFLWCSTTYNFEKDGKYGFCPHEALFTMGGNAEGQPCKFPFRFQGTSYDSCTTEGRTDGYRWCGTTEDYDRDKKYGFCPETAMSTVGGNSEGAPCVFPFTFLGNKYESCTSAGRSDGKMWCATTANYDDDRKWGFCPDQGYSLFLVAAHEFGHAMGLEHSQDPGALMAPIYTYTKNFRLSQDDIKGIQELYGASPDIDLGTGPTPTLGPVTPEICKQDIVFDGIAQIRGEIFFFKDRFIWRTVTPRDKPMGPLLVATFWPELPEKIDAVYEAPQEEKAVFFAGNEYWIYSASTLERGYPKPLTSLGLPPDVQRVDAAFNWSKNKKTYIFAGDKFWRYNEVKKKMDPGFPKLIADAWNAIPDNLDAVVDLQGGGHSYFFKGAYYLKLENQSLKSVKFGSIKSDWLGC
Briefly: MMP assay (fluorogenic substrate ES010). The method, then:
as §1, §2

In a further assay the target is T4, MMP8 (Homo sapiens, UniProt P22894).
T4 construct: purchased R&D Systems 908-MP
In words: MMP assay (fluorogenic substrate ES010). The method, then:
as §1, §2

The target of another assay is T5, MMP9 (Homo sapiens, UniProt P14780).
T5 construct: purchased R&D Systems 911-MP
In words: MMP assay (fluorogenic substrate ES010). The method, then:
as §1, §2

Assay [1] relates to MMP-2, MMP-3, MMP-8, MMP-9, MMP-10, MMP-14, ADAM10, and ADAM17. In words: Selectivity panel of related metzincins. The following applies: all tested enzymes, Figure 4B. The method, then:
Both assays followed the same general protocol. 2.5 µL of 2× enzyme solution (20 nM) in assay buffer (10 mM HEPES, 0.001% Brij-35, pH 7.5) were added to solid bottom black 384 plates (Greiner, cat# 789075). Next, test compounds and pharmacological controls were added to corresponding wells using a 384-pin tool device (V&P Scientific, San Diego). After 30 min incubation at RT, the reactions were started by addition of 2.5 µL of 2× solutions of substrate (R&D Systems cat#: ES010, Mca-KPLGL-Dpa-AR-NH2, 20 µM). Reactions were incubated at RT for 2 h, after which the fluorescence was measured using a Perkin Elmer Viewlux multimode microplate imager (λexcitation = 324 nm, λemission = 393 nm). All compounds were tested in 10-point, 1:3 serial dilutions dose-response format starting with highest concentration of 100 µM. IC50 values were determined using non-linear regression analysis using the GraphPad Prism 8.0 suite of programs.
All assays followed the same general protocol. […] Reactions were incubated at RT for 1 h, after which the fluorescence was measured using the Synergy H4 multimode microplate reader (Biotek Instruments) (λexcitation = 324 nm, λemission = 390 nm). […] IC50 values were determined using non-linear regression analysis using the GraphPad Prism 8.0 suite of programs.

T4 sequence (P22894 101-467): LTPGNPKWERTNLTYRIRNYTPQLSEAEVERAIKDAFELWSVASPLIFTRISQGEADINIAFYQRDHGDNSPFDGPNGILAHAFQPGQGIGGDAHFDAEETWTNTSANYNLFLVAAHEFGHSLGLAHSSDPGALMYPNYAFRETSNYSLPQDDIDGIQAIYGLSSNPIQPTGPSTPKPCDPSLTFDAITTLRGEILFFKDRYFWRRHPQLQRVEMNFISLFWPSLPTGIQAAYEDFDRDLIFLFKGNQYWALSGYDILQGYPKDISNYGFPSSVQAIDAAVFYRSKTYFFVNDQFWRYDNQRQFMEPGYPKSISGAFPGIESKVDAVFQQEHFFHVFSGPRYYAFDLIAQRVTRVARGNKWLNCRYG
T5 sequence (P14780 94-707): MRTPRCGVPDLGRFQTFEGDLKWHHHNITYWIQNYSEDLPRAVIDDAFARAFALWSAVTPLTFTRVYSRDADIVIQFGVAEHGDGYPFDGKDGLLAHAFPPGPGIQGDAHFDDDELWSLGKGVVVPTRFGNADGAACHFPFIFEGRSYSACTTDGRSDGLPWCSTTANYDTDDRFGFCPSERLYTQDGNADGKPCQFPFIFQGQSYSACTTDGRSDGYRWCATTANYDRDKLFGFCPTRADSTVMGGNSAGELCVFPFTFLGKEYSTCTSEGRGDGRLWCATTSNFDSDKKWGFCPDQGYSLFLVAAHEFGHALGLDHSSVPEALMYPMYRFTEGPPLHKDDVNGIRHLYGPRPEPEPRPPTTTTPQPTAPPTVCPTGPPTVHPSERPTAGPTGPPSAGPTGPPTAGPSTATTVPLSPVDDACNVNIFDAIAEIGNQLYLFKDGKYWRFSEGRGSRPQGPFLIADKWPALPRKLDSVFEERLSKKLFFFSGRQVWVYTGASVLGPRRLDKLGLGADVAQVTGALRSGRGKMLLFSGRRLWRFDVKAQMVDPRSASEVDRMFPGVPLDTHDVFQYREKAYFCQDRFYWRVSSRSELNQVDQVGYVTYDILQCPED

As for `COc1cc(OC)nc(SCc2nnc(SCC(=O)NO)n2-c2ccc(N(C)C)cc2)n1` [SR24717], the IC50 (on MMP13; on MMP14; at MMP2; at MMP8; on MMP9; in assay [1]) was over 100 µM each time.

Take `CCCCC[C@H](CC(=O)NO)C(=O)N[C@H](C(=O)N1CCC[C@H]1CO)C(C)C` [Actinonin, actinonin, reference compound]: the half-maximal inhibitory concentration (IC50) at MMP13 was 0.1 µM; on MMP14, over 1000 µM; at MMP2, 0.09 µM; at MMP8 it was 0.19 µM; on MMP9, 0.1 ± 0.01 µM.

In general, IC50 refers to the concentration that gives 50% inhibition.
